Consider four compounds from US20190119348A1, “PARATHYROID HORMONE RECEPTOR 1 ANTAGONIST AND INVERSE AGONIST POLYPEPTIDES AND METHODS OF THEIR USE” (The General Hospital Corporation, priority 2016, published 2019).

The assay concerns the target T1, human PTHR1-H223R (Homo sapiens, UniProt Q03431, H223R).
T1 construct: expressed in transfected cells; host or cells: GHR-10 (HEK-293 stably expressing GloSensor and PTHR1-H223R)
T1 sequence (Q03431 27-593 H223R): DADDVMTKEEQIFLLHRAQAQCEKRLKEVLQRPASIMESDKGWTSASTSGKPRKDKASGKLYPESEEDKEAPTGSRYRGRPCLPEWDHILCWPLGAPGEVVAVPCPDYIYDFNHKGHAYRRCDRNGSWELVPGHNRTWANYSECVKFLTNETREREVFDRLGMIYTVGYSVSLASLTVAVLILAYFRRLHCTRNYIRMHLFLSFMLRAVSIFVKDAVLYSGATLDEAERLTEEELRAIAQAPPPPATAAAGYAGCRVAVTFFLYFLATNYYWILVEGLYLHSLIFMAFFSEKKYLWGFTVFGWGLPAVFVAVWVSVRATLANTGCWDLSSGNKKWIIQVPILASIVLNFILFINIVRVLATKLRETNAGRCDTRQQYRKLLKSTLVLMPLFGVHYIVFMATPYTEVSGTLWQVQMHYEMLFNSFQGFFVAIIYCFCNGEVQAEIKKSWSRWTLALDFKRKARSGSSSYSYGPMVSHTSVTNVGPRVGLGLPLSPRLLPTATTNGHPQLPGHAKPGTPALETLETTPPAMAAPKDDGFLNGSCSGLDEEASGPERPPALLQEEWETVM
As to the kind of experiment: Inverse agonism on basal cAMP signaling in GHR-10 cells. In kind it is cell-based. The settings on record: for inverse agonist properties on constitutively active PTHR1-H223R (basal cAMP): GHR-10 cells (HEK293/GloSensor); for Reduction of basal cAMP, % vehicle, After ligand washout / Reduction of basal cAMP, % vehicle, Ligand @ −6M: GHR-10 cells, from AUC, representative experiment; for Reduction of basal cAMP, % vehicle, After ligand washout: 26 minutes after washout of unbound ligand; for Reduction of basal cAMP, % vehicle, Ligand @ −6M: peptide 1×10^−6 M for 24 minutes. How it is done: cAMP signaling was assessed in the HEK293-derived or SaOS2-derived cell lines stably expressing the luciferase-based GloSensor™ cAMP reporter (Hattersley et al., Paper presented at: Novel Signaling Mechanisms and Bone Cell Biology 2014; Binkowski et al., Methods in molecular biology. 756:263-271). HEK-293 cells were further transfected to stably express the hPTHR1, hPTHR1-H223R, or hPTHR1-T410P. The cells were seeded into 96-well white plates and were assayed 24 to 48 hours post-confluency. Assays were performed at room temperature in CO2-independent culture media (Life Technologies, Corp., Carlsbad, Calif.) containing 0.1% BSA (CIDB). The cells were pre-loaded with luciferin (0.5 mM in CIDB) for 15 minutes, then PTH peptides were added at varying concentrations. cAMP-dependent luminescence was measured at two-minute intervals using a PerkinElmer Envision plate reader. The time at which maximum luminescence (cps) observed with agonist alone, typically at 10-20 minutes after agonist addition, was used to obtain data from wells containing antagonist with or without agonist, to thus generate antagonist ligand dose-response curves. The resulting cps values were then plotted against ligand concentration using GraphPad Prism 7.0 software and a four-parameter logistics curve fitting equation, which yielded parameters of inhibitory potency (pIC50).
These experiments were performed in HEK-293 cells stably transfected to express the GloSensor™ cAMP reporter along with a constitutively active mutant human PTHR1. The HEK-293 cells stably expressing GloSensor™ cAMP reporter along with a constitutively active mutant human PTHR1-H223R are GHR-10 cells. The HEK-293 cells stably expressing GloSensor™ cAMP reporter along with a constitutively active mutant human PTHR1-T410P are GTP-4 cells. The HEK-293 cells stably expressing GloSensor™ cAMP reporter along with a WT-PTHR1 are GP-2.3 cells. GP-2.3 cells were used as control. […] Effects on basal cAMP signaling over time were assessed during periods of direct ligand addition (FIGS. 15A-15F). The measurements were performed by recording GloSensor™ luminescence as counts per second (cps) using a PerkinElmer Envision plate reader. The data are illustrated in FIGS. 15A-15F. Data are from triplicate wells (means±SEM) of a single experiment representative of two others.
Persistence of the antagonist/inverse agonist effects (prolonged action) as follows. Effects of eight peptides on basal and PTH(1-34)-stimulated cAMP signaling by PTHR-H223R were assessed in GHR-10 cells (HEK-293-derived cells stably expressing glosensor cAMP reporter and PTHR1-H223R). Time courses of changes in cAMP levels were recorded in three consecutive phases:
1) after initial addition of a candidate antagonist/inverse agonist (1×10^−6 M-1×10^−9 M) to cells pre-loaded for […] with luciferin (left column);
2) after removal of unbound inverse agonist by extensive wash-out with buffer and replenishment with fresh luciferin-containing buffer (middle column); and
Control wells were treated with vehicle. GloSensor™ luminescence, as counts per second (cps), was recorded using a PerkinElmer Envision plate reader. Data are from duplicate wells (means±SEM) of a single experiment representative of two others. The results are illustrated in Table 7 and in FIGS. 16A-16C, 17A-17C, 18A-18C, 19A-19C, 20A-20C, 21A-21C, 22A-22C, and 23A-23C.
GHR10 cells were treated with vehicle or vehicle containing the indicated peptide for 24 minutes and cAMP-dependent luminescence was recorded at two-minute intervals. The cells were then washed to remove unbound ligand and media containing fresh luciferin was added, and cAMP luminescence was recorded for another 26 minutes. Percentage reduction was calculated from the area-under-the-curve (AUC) values derived from the time course plots using the equation: […]

Where a SMILES comes first, the peptide text is derived from it. [ ]: non-standard residue; d: D form. Nle = CCCC[C@H](N)C(=O)O

`CC[C@H](C)[C@H](N)C(=O)N[C@@H](CCC(N)=O)C(=O)N[C@@H](CC(C)C)C(=O)N[C@@H](CCSC)C(=O)N[C@@H](Cc1c[nH]cn1)C(=O)N[C@@H](CCC(N)=O)C(=O)N[C@@H](CCCNC(=N)N)C(=O)N[C@H](Cc1c[nH]c2ccccc12)C(=O)N[C@@H](CCCCN)C(=O)N[C@@H](Cc1c[nH]c2ccccc12)C(=O)N[C@H](C(=O)N[C@@H](CCC(N)=O)C(=O)N[C@@H](CC(=O)O)C(=O)N[C@@H](C)C(=O)N[C@@H](CCCNC(=N)N)C(=O)N[C@@H](CCCNC(=N)N)C(=O)N[C@@H](CCCNC(=N)N)C(=O)N[C@@H](C)C(=O)N[C@@H](Cc1c[nH]c2ccccc12)C(=O)N[C@@H](CC(C)C)C(=O)N[C@@H](Cc1c[nH]cn1)C(=O)N[C@@H](CCCCN)C(=O)N[C@@H](CC(C)C)C(=O)N[C@H](C(=O)N[C@@H](C)C(=O)N[C@@H](CCC(=O)O)C(=O)N[C@H](C(=O)N[C@@H](Cc1c[nH]cn1)C(=O)N[C@H](C(=O)N[C@@H](C)C(=O)N[C@@H](CCC(=O)O)C(=O)N[C@H](C(N)=O)[C@@H](C)CC)[C@@H](C)O)[C@@H](C)CC)[C@@H](C)CC)[C@@H](C)CC` [compound 1949, dW12, W23-LA-PTH(5-36)] (H-IQLMHQR[dW]KWIQDARRRAWLHKLIAEIHTAEI-NH2; N-terminus assumed): the “inverse agonist properties on constitutively active PTHR1-H223R (basal cAMP)” value is reported as “exhibited inverse agonist properties”; the “Reduction of basal cAMP, % vehicle, After ligand washout” value is 30 % vehicle; the “Reduction of basal cAMP, % vehicle, Ligand @ −6M” value worked out at 41 % vehicle.
On the same counts, the results for `CC[C@H](C)[C@H](NC(=O)[C@H](CCC(=O)O)NC(=O)[C@H](C)NC(=O)[C@@H](NC(=O)[C@H](Cc1c[nH]cn1)NC(=O)[C@@H](NC(=O)[C@H](CCC(=O)O)NC(=O)[C@H](C)NC(=O)[C@@H](NC(=O)[C@H](CC(C)C)NC(=O)[C@H](CCCCN)NC(=O)[C@H](Cc1c[nH]cn1)NC(=O)[C@H](CC(C)C)NC(=O)[C@H](Cc1c[nH]c2ccccc12)NC(=O)[C@H](C)NC(=O)[C@H](CCCNC(=N)N)NC(=O)[C@H](CCCNC(=N)N)NC(=O)[C@H](CCCNC(=N)N)NC(=O)[C@H](C)NC(=O)[C@H](CC(=O)O)NC(=O)[C@H](CCC(N)=O)NC(=O)[C@@H](NC(=O)[C@H](Cc1c[nH]c2ccccc12)NC(=O)[C@H](CCCCN)NC(=O)[C@@H](Cc1c[nH]c2ccccc12)NC(=O)[C@H](CCCNC(=N)N)NC(=O)[C@H](CCC(N)=O)NC(=O)[C@H](Cc1c[nH]cn1)NC(=O)[C@H](CCSC)NC(=O)[C@@H](N)CC(C)C)[C@@H](C)CC)[C@@H](C)CC)[C@@H](C)CC)[C@@H](C)O)C(N)=O` [compound 1990, dW12, W23-LA-PTH(7-36)-1990] (H-LMHQR[dW]KWIQDARRRAWLHKLIAEIHTAEI-NH2; N-terminus assumed) are “inverse agonist response”, 39 % vehicle and 50 % vehicle.
The corresponding values for `CCCC[C@H](NC(=O)[C@@H](N)CC(C)C)C(=O)N[C@@H](Cc1c[nH]cn1)C(=O)N[C@@H](CCC(N)=O)C(=O)N[C@@H](CCCNC(=N)N)C(=O)N[C@H](Cc1c[nH]c2ccccc12)C(=O)N[C@@H](CCCCN)C(=O)N[C@@H](Cc1c[nH]c2ccccc12)C(=O)N[C@H](C(=O)N[C@@H](CCC(N)=O)C(=O)N[C@@H](CC(=O)O)C(=O)N[C@@H](C)C(=O)N[C@@H](CCCNC(=N)N)C(=O)N[C@@H](CCCNC(=N)N)C(=O)N[C@@H](CCCNC(=N)N)C(=O)N[C@@H](C)C(=O)N[C@@H](Cc1c[nH]c2ccccc12)C(=O)N[C@@H](CC(C)C)C(=O)N[C@@H](Cc1c[nH]cn1)C(=O)N[C@@H](CCCCN)C(=O)N[C@@H](CC(C)C)C(=O)N[C@H](C(=O)N[C@@H](C)C(=O)N[C@@H](CCC(=O)O)C(=O)N[C@H](C(=O)N[C@@H](Cc1c[nH]cn1)C(=O)N[C@H](C(=O)N[C@@H](C)C(=O)N[C@@H](CCC(=O)O)C(=O)N[C@H](C(N)=O)[C@@H](C)CC)[C@@H](C)O)[C@@H](C)CC)[C@@H](C)CC)[C@@H](C)CC` [compound 1992, Nle8, dW12, W23-LA-PTH(7-36)-1992] (H-L[Nle]HQR[dW]KWIQDARRRAWLHKLIAEIHTAEI-NH2; N-terminus assumed) are “inverse agonist response”, 40 % vehicle and 51 % vehicle.
For the compound `CCCC[C@H](NC(=O)[C@@H](N)CC(C)C)C(=O)N[C@@H](Cc1c[nH]cn1)C(=O)N[C@@H](CCC(N)=O)C(=O)N[C@@H](CC(C)C)C(=O)N[C@H](Cc1c[nH]c2ccccc12)C(=O)N[C@@H](CCCCN)C(=O)N[C@@H](Cc1c[nH]c2ccccc12)C(=O)N[C@H](C(=O)N[C@@H](CCC(N)=O)C(=O)N[C@@H](CC(=O)O)C(=O)N[C@@H](C)C(=O)N[C@@H](CCCNC(=N)N)C(=O)N[C@@H](CCCNC(=N)N)C(=O)N[C@@H](CCCNC(=N)N)C(=O)N[C@@H](C)C(=O)N[C@@H](Cc1c[nH]c2ccccc12)C(=O)N[C@@H](CC(C)C)C(=O)N[C@@H](Cc1c[nH]cn1)C(=O)N[C@@H](CCCCN)C(=O)N[C@@H](CC(C)C)C(=O)N[C@H](C(=O)N[C@@H](C)C(=O)N[C@@H](CCC(=O)O)C(=O)N[C@H](C(=O)N[C@@H](Cc1c[nH]cn1)C(=O)N[C@H](C(=O)N[C@@H](C)C(=O)N[C@@H](CCC(=O)O)C(=O)N[C@H](C(N)=O)[C@@H](C)CC)[C@@H](C)O)[C@@H](C)CC)[C@@H](C)CC)[C@@H](C)CC` [compound 1997, Nle8,L11, dW12, W23-LA-PTH(7-36)-1997] (H-L[Nle]HQL[dW]KWIQDARRRAWLHKLIAEIHTAEI-NH2; N-terminus assumed), the “Reduction of basal cAMP, % vehicle, After ligand washout” value is given as 71 % vehicle and the “Reduction of basal cAMP, % vehicle, Ligand @ −6M” value is 70 % vehicle.
